From ChEMBL document CHEMBL3045746, “Efficacy of Lawsonia inermis leaves extract and its phenolic compounds against olive knot and crown gall diseases” (2013)
≈ marks a conversion by molar mass, not a printed value.

Tested on: Agrobacterium tumefaciens
Assay: Antibacterial activity against Agrobacterium tumefaciens str. B6 assessed as growth inhibition after 48 hr by INT staining
Format: functional
Settings: str. B6, 48 h

Compound: CC(=O)c1c(O)cc(O)c(O)c1O[C@@H]1O[C@H](CO)[C@@H](O)[C@H](O)[C@H]1O [LALIOSIDE]
- MIC: 30 µg/mL (≈ 86.6 µM)
